Test results as given in BindingDB's records for doi:10.1021/jm500569h (Georgetown University, 2014).

experiment: Antagonist activity at ER in human MCF7:WS8 cells assessed as inhibition of estradiol-induced cell growth by measuring DNA level after 7 days by fluorescence analysis

`CCOc1ccc2c(c1)CCCC(c1ccccc1)=C2c1ccc(OCCN(C)C)cc1` and `CNCCOc1ccc(C2=C(c3ccccc3)CCCc3cc(O)ccc32)cc1` are the same in IC50: 3 nM for the first, 3 nM for the second.

experiment: Agonist activity at ER in human MCF7:WS8 cells assessed as increase in cell growth by measuring DNA level after 7 days by fluorescence analysis

Going from `CNCCOc1ccc2c(c1)CCCC(c1ccccc1)=C2c1ccc(O)cc1` to `CCOc1ccc2c(c1)CCCC(c1ccccc1)=C2c1ccc(O)cc1`, the EC50 falls from 20 nM to 2.7 nM (7.4-fold).

Compared with `CN(C)CCOc1ccc2c(c1)CCCC(c1ccccc1)=C2c1ccc(O)cc1`, `COc1ccc2c(c1)CCCC(c1ccccc1)=C2c1ccc(O)cc1` is 3.8-fold lower in EC50: 15 nM for the first, 4 nM for the second. The second is the more potent here.

First: CCC(=C(c1ccc(O)cc1)c1ccc(O)cc1)c1ccc(O)cc1
Second: CCC(=C(c1ccc(O)cc1)c1ccc(O)cc1)c1ccccc1 [1,1-bis(4,4'-hydroxyphenyl)-2-phenylbut-1-ene]
The EC50 of the first is 10-fold higher: 0.15 nM for the first, 0.015 nM for the second.

`COc1ccc(C2=C(c3ccccc3)CCCc3cc(O)ccc32)cc1` and `CCOc1ccc(C2=C(c3ccccc3)CCCc3cc(O)ccc32)cc1` are the same in EC50: 0.3 nM for the first, 0.3 nM for the second.
